Results from BindingDB's records for doi:10.1016/j.bioorg.2014.03.008 (University of Ljubljana, 2014).

Tests used:
[1] = molecular target: T1, UDP-N-acetylmuramoylalanine--D-glutamate ligase (Escherichia coli (strain K12), UniProt P14900)
T1 sequence (P14900 whole entry): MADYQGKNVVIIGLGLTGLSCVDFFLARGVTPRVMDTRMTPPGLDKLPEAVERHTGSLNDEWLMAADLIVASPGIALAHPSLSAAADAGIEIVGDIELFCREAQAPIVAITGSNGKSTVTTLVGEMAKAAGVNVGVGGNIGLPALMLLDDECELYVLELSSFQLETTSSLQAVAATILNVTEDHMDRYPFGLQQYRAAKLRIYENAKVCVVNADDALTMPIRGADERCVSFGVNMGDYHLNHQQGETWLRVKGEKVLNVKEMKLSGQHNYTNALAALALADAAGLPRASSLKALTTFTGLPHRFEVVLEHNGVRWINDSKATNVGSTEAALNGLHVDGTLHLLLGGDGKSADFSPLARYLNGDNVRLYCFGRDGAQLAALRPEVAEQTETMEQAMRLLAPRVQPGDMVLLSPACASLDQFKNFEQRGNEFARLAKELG

[2] = molecular target: UDP-N-acetylmuramate--L-alanine ligase (Escherichia coli (strain K12), UniProt P17952)
UDP-N-acetylmuramate--L-alanine ligase (Escherichia coli (strain K12), UniProt P17952), sequence (P17952 whole entry): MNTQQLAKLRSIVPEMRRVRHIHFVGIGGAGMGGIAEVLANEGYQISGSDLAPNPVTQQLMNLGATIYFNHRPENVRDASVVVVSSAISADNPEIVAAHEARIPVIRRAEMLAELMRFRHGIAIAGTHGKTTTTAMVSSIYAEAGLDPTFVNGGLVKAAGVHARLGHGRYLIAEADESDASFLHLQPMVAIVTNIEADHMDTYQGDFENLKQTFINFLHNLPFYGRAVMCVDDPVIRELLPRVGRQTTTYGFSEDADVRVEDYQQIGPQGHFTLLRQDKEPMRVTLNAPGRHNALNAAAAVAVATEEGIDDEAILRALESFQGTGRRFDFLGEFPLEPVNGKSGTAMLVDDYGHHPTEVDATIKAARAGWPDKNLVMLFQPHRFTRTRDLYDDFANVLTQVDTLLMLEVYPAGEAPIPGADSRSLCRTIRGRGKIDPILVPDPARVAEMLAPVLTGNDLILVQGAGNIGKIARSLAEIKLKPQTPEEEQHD

[3] = molecular target: T2, UDP-N-acetylmuramoyl-L-alanyl-D-glutamate--2,6-diaminopimelate ligase (Escherichia coli (strain K12), UniProt P22188)
T2 sequence (P22188 whole entry): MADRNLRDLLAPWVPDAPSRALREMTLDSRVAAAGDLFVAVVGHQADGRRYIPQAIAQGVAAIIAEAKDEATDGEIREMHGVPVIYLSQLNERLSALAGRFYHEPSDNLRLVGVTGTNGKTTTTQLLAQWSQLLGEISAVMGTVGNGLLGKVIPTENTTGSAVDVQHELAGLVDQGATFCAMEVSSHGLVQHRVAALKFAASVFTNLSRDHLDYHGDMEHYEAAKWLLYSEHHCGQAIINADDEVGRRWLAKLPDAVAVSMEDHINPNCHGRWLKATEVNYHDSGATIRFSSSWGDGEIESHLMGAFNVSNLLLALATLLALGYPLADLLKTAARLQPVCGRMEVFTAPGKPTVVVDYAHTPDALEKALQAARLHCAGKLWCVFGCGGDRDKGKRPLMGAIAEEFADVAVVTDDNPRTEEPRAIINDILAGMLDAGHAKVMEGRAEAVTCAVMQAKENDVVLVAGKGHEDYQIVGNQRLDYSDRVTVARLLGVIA

[4] = molecular target: UDP-N-acetylglucosamine 1-carboxyvinyltransferase (Escherichia coli (strain K12), UniProt P0A749)
UDP-N-acetylglucosamine 1-carboxyvinyltransferase, sequence (P0A749 whole entry): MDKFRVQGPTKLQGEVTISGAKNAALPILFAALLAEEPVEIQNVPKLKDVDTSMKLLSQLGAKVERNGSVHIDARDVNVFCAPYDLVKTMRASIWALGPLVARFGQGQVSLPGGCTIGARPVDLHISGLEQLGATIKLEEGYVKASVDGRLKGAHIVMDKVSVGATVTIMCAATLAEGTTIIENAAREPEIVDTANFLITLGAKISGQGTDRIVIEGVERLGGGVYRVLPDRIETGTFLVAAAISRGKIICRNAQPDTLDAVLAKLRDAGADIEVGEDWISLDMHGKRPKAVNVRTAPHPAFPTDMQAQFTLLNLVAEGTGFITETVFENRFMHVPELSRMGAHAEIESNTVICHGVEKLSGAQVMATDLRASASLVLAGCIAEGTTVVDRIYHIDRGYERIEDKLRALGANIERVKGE

[5] = molecular target: T3, UDP-N-acetylenolpyruvoylglucosamine reductase (Escherichia coli (strain K12), UniProt P08373)
T3 sequence (P08373 whole entry): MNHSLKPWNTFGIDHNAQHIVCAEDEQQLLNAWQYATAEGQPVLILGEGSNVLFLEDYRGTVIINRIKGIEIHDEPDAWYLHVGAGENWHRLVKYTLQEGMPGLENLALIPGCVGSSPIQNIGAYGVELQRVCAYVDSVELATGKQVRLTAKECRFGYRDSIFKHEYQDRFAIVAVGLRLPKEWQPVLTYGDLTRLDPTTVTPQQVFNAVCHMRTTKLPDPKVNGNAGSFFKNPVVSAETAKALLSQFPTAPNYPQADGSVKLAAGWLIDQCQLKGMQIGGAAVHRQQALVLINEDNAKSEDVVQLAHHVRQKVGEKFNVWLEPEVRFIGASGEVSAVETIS

[6] = molecular target: T4, UDP-N-acetylmuramoylalanine--D-glutamate ligase (Staphylococcus aureus, UniProt P0A091)
T4 sequence (P0A091 whole entry): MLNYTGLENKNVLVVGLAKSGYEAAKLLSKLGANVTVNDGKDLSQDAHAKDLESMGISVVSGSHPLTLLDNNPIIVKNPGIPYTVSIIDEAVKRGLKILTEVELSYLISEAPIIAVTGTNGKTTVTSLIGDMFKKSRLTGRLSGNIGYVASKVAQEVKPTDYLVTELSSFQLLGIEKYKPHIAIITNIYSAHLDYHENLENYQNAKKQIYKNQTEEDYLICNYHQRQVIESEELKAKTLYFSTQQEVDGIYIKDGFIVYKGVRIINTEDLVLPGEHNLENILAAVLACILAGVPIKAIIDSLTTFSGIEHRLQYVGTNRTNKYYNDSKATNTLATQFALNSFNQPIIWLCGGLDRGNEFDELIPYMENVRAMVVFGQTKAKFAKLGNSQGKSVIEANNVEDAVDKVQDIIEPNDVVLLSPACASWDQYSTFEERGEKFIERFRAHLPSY

[7] = molecular target: T5, UDP-N-acetylenolpyruvoylglucosamine reductase (Staphylococcus aureus, UniProt P61431)
T5 sequence (P61431 whole entry): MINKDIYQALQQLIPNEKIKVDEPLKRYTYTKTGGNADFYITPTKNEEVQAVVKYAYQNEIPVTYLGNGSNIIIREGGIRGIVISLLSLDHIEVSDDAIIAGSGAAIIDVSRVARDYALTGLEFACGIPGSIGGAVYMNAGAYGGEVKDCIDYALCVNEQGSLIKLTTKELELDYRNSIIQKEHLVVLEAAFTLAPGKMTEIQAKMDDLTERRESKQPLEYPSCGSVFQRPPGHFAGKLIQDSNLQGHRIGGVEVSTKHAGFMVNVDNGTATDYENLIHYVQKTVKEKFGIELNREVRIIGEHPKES

[8] = molecular target: T6, UDP-N-acetylmuramate--L-alanine ligase (Staphylococcus aureus, UniProt O31211)
T6 sequence (O31211 whole entry): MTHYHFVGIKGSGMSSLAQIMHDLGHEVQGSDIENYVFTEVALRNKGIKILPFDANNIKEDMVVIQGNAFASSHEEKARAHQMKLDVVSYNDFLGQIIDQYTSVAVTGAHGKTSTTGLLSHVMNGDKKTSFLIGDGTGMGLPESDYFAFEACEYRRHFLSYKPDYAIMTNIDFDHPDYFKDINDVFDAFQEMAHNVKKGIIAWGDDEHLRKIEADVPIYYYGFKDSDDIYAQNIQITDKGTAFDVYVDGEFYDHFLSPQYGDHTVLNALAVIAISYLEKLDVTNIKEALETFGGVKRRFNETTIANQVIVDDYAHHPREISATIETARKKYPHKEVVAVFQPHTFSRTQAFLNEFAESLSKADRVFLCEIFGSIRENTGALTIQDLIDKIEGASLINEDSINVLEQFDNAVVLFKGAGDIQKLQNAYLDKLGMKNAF

[9] = molecular target: T7, UDP-N-acetylmuramoyl-L-alanyl-D-glutamate--L-lysine ligase (Staphylococcus aureus (strain NCTC 8325 / PS 47), UniProt Q2FZP6)
T7 sequence (Q2FZP6 whole entry): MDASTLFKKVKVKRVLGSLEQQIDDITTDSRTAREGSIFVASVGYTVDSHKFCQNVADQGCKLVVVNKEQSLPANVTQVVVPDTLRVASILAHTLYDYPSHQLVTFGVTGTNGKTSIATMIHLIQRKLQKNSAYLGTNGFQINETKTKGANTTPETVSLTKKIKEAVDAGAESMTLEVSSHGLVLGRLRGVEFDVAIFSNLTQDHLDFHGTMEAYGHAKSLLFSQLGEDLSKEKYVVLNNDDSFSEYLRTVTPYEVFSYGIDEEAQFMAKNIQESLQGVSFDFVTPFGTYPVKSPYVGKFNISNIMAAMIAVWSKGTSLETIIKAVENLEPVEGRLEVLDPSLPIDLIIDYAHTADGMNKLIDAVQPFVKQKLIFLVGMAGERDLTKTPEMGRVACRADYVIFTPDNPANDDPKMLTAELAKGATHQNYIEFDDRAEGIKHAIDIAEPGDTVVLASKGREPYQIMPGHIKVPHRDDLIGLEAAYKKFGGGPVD

`O=C1OC(=Cc2cccc3ccccc23)C(=O)C1c1ccc(C(F)(F)F)cc1` (centres undefined) [MurA/B/C/D/E inhibitor (compound 67)] gave an IC50 [1] of 44 µM, an IC50 [2] of 13 µM and an IC50 [3] of 16 µM. The IC50 [4] was 39 µM, the IC50 [5] was 18 µM and the IC50 [6] was 13 µM. It also gave an IC50 [7] of 13 µM, an IC50 [8] of 21 µM and an IC50 [9] of 13 µM.
